Drawing on ChEMBL document CHEMBL1150092, “Isolation and characterization of cytotoxic and antibacterial tetrasaccharide glycosides from Ipomoea stans” (1995), this text covers EC50 and MIC for two compounds.

The subject of one experiment is P388. As to the kind of experiment: Cytotoxicity against mouse P388 cells. The settings on record: read-out: ED50 (the source's name). It is filed as functional.
The next experiment has as its system Staphylococcus aureus. As to the kind of experiment: Antimicrobial activity against Staphylococcus aureus ATCC 6538. It is filed as functional, organism-based.
The test system of the next experiment is Bacillus subtilis. As to the kind of experiment: Antimicrobial activity against Bacillus subtilis ATCC 6633. It is filed as functional, organism-based.

Converted amounts (≈) assume the structure as drawn.

As for `CCCCC[C@H]1CCCCCCCCCC(=O)O[C@H]2[C@H](O)[C@@H](CO)O[C@@H](O[C@H]3[C@H](O1)O[C@H](C)[C@H](O)[C@@H]3O)[C@@H]2O[C@@H]1O[C@@H](C)[C@H](OC(=O)[C@@H](C)CC)[C@@H](O[C@@H]2O[C@@H](C)[C@H](O)[C@@H](O)[C@H]2O)[C@H]1OC(=O)[C@@H](C)CC` [TRICOLORIN A], the EC50 in the experiment with P388 was found to be 2.2 µg/mL (≈ 2.15 µM). By MIC is commonly meant the smallest concentration in the dilution series that meets the test's criterion for growth inhibition. Read a high MIC as a less susceptible organism. Take NYSTATIN: the results for the MIC in the experiment with Staphylococcus aureus and against Bacillus subtilis were 8 µg/mL and 16 µg/mL, respectively.
